Assay results reported in US7884117B2, “Carbonylamino pyrrolopyrazoles, potent kinase inhibitors” (Pfizer Inc., priority 2005, dated 2011).

Key:
[1] = target: T1, PAK4 kinase activity in whole cells (TR-293-KDG, modified HEK 293) (Homo sapiens, UniProt O96013); assay: PAK4 cellular assay: sandwich ELISA of PAK4-dependent phosphorylation of GEF-H1b in TR-293-KDG cells; format: cell-based; details: 3-hour exposure
T1 construct: engineered to overexpress both GEF-H1b and the kinase domain (KD) of PAK4; expressed in transfected cells; host or cells: TR-293-KDG (modified HEK 293, Trex system, Invitrogen)
T1 sequence (O96013 321-572 limits assumed): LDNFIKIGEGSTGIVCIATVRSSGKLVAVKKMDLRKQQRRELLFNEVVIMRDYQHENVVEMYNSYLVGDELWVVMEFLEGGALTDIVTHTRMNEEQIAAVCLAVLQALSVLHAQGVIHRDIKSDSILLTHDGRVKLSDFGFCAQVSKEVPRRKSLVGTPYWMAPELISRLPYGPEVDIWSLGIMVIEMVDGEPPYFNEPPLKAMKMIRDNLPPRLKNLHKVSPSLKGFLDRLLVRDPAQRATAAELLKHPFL

[2] = target: T2, PAK4 Kinase domain (PAK4 KD) (Homo sapiens, UniProt O96013); assay: PAK4 kinase domain enzymatic assay (PK/LDH-coupled, Ki); format: biochemical; details: PAK4 Kinase Domain
T2 construct: Cloning, expression, and purification of recombinant PAK4 Kinase domain (PAK4 KD); His tag (pET28a(+)/pET24a(+), Ni-NTA purification) (N, cleaved yes); GST (pGST4.5, glutathione column) (N, cleaved yes); made in house; host or cells: E. coli BL21(DE3)
T2 sequence (O96013 321-572 limits assumed): as above

Compound | EC50 [1] [nM] | Ki [2] [nM]
CN(C)C[C@H](Cc1ccccc1)OC(=O)N1Cc2c(NC(=O)c3ccccc3)n[nH]c2C1(C)C [Example 30, (1S)-1-benzyl-2-(dimethylamino)ethyl 3-(benzoylamino)-6,6-dimethyl-4,6-dihydropyrrolo[3,4-c]pyrazole-5(1H)-carboxylate] | 2090 | 106
CN(C)CC(OC(=O)N1Cc2c(n[nH]c2NC(=O)C2CCCO2)C1(C)C)c1cccc(F)c1 (single isomer, unassigned) [Example 84A] | 16 | 70
COc1ccc(CC(=O)Nc2n[nH]c3c2CN(C(=O)O[C@H](CN(C)C)c2ccccn2)C3(C)C)cc1 [Example 88, (1R)-2-(dimethylamino)-1-pyridin-2-ylethyl 3-{[(4-methoxyphenyl)-acetyl]amino}-6,6-dimethyl-4,6-dihydropyrrolo[3,4-c]pyrazole-5(1H)-carboxylate] | 88 | 35.6
CN(C)C[C@@H](NC(=O)N1Cc2c(NC(=O)c3cccc(Oc4ccccc4)c3)n[nH]c2C1(C)C)c1ccccc1 [Example 96, N-[(1S)-2-(dimethylamino)-1-phenylethyl]-6,6-dimethyl-3-[(3-phenoxybenzoyl)amino]-4,6-dihydropyrrolo[3,4-c]pyrazole-5(1H)-carboxamide] | 59 | 12.5
CN(C)C[C@@H](OC(=O)N1Cc2c(NC(=O)Cc3ccc(F)cc3)n[nH]c2C1(C)C)c1ccccc1 [Example 18, (1S)-2-(dimethylamino)-1-phenylethyl 3-{[(4-fluorophenyl)acetyl]amino}-6,6-dimethyl-4,6-dihydropyrrolo[3,4-c]pyrazole-5(1H)-carboxylate] | 28.3 | 23.3
CN(C)C[C@@H](OC(=O)N1Cc2c(NC(=O)[C@@H]3CCCO3)n[nH]c2C1(C)C)c1ccccc1 [Example 92, (S)-2-(dimethylamino)-1-phenylethyl 6,6-dimethyl-3-((S)-tetrahydrofuran-2-carboxamido)pyrrolo[3,4-c]pyrazole-5(1H,4H,6H)-carboxylate] | 103 | 345
CN(C)C[C@@H](OC(=O)N1Cc2c(NC(=O)c3cccc4c3OCC4)n[nH]c2C1(C)C)c1ccccc1 [Example 81, (1S)-2-(dimethylamino)-1-phenylethyl 3-[(2,3-dihydro-1-benzofuran-7-ylcarbonyl)amino]-6,6-dimethyl-4,6-dihydropyrrolo[3,4-c]pyrazole-5(1H)-carboxylate] | 104 | 240
CN(C)C[C@@H](OC(=O)N1Cc2c(NC(=O)c3ccccc3F)n[nH]c2C1(C)C)c1ccccn1 [Example 26, (1R)-2-(dimethylamino)-1-pyridin-2-ylethyl 3-[(2-fluorobenzoyl)amino]-6,6-dimethyl-4,6-dihydropyrrolo[3,4-c]pyrazole-5(1H)-carboxylate] | 244 | 278
CN(C)C[C@@H](OC(=O)N1Cc2c(NC(=O)[C@@H]3C[C@H]3c3ccccc3)n[nH]c2C1(C)C)c1ccccn1 [Example 29, (1R)-2-(dimethylamino)-1-pyridin-2-ylethyl 6,6-dimethyl-3-({[trans-2-phenylcyclopropyl]carbonyl}-amino)-4,6-dihydropyrrolo[3,4-c]pyrazole-5(1H)-carboxylate] | 419 | 27.1
CN(C)C[C@@H](OC(=O)N1Cc2c(NC(=O)c3ccc(F)cc3F)n[nH]c2C1(C)C)c1ccccc1 [Example 4, (1S)-2-(dimethylamino)-1-phenylethyl 3-[(2,4-difluorobenzoyl)amino]-6,6-dimethyl-4,6-dihydropyrrolo[3,4-c]pyrazole-5(1H)-carboxylate] | 14.6 | 68
CN(C)C[C@H](Cc1ccccc1)OC(=O)N1Cc2c(NC(=O)c3ccccc3F)n[nH]c2C1(C)C [Example 31, (1S)-1-benzyl-2-(dimethylamino)ethyl 3-[(2-fluorobenzoyl)amino]-6,6-dimethyl-4,6-dihydropyrrolo[3,4-c]pyrazole-5(1H)-carboxylate] | 230 | 858
CN(C)C[C@@H](OC(=O)N1Cc2c(NC(=O)c3ccccc3F)n[nH]c2C1(C)C)c1ccccc1 [Example 3, (1S)-2-(dimethylamino)-1-phenylethyl 3-[(2-fluorobenzoyl)amino]-6,6-dimethyl-4,6-dihydropyrrolo[3,4-c]pyrazole-5(1H)-carboxylate] | 50 | 42.1
CNC[C@@H](OC(=O)N1Cc2c(NC(=O)c3ccc(F)cc3)n[nH]c2C1(C)C)c1ccccc1 [Example 121, (S)-2-(methylamino)-1-phenylethyl 3-(4-fluorobenzamido)-6,6-dimethylpyrrolo[3,4-c]pyrazole-5(1H,4H,6H)-carboxylate] | 124 | 16.2
CN(C)C[C@@H](OC(=O)N1Cc2c(NC(=O)C(C)(C)C)n[nH]c2C1(C)C)c1ccccc1 [Example 10, (1S)-2-(dimethylamino)-1-phenylethyl 3-[(2,2-dimethylpropanoyl)amino]-6,6-dimethyl-4,6-dihydropyrrolo[3,4-c]pyrazole-5(1H)-carboxylate] | 7.2 | 75
C[C@@H]([C@@H](OC(=O)N1Cc2c(NC(=O)c3ccc(F)cc3)n[nH]c2C1(C)C)c1ccccc1)N(C)C [Example 45, (1S,2S)-2-(dimethylamino)-1-phenylpropyl 3-[(4-fluorobenzoyl)amino]-6,6-dimethyl-4,6-dihydropyrrolo[3,4-c]pyrazole-5(1H)-carboxylate] | 21.1 | 318
CN(C)C[C@@H](NC(=O)N1Cc2c(NC(=O)c3cscn3)n[nH]c2C1(C)C)c1ccccc1 [Example 72, N-[(1S)-2-(dimethylamino)-1-phenylethyl]-6,6-dimethyl-3-[(1,3-thiazol-4-ylcarbonyl)amino]-4,6-dihydropyrrolo[3,4-c]pyrazole-5(1H)-carboxamide] | 362 | 93.8
CN(C)C[C@@H](OC(=O)N1Cc2c(NC(=O)c3ccc(F)cc3F)n[nH]c2C1(C)C)C1CCCCC1 [Example 34, (1S)-1-cyclohexyl-2-(dimethylamino)ethyl 3-[(2,4-difluorobenzoyl)amino]-6,6-dimethyl-4,6-dihydropyrrolo[3,4-c]pyrazole-5(1H)-carboxylate] | 60 | 510
CN(C)C[C@@H](OC(=O)N1Cc2c(NC(=O)C3CCOC3)n[nH]c2C1(C)C)c1ccccc1 (stereo partly drawn) [Example 119, (S)-2-(dimethylamino)-1-phenylethyl 6,6-dimethyl-3-(tetrahydrofuran-3-carboxamido)pyrrolo[3,4-c]pyrazole-5(1H,4H,6H)-carboxylate] | 52 | 260
CN(C)C[C@@H](OC(=O)N1Cc2c(NC(=O)c3ccc(C(F)(F)F)cc3)n[nH]c2C1(C)C)c1ccccn1 [Example 27, (1R)-2-(dimethylamino)-1-pyridin-2-ylethyl 6,6-dimethyl-3-{[4-(trifluoromethyl)benzoyl]amino}-4,6-dihydropyrrolo[3,4-c]pyrazole-5(1H)-carboxylate] | 79.9 | 82.1
CN(C)C[C@@H](OC(=O)N1Cc2c(NC(=O)c3ccc(C(F)(F)F)cc3)n[nH]c2C1(C)C)c1ccccc1 [Example 5] | 271 | 14.4
CN(C)C[C@@H](NC(=O)N1Cc2c(NC(=O)c3nc4ccccc4s3)n[nH]c2C1(C)C)c1ccccc1 [Example 104, (S)-N-(5-((2-(dimethylamino)-1-phenylethyl)carbamoyl)-6,6-dimethyl-1,4,5,6-tetrahydropyrrolo[3,4-c]pyrazol-3-yl)benzo[d]thiazole-2-carboxamide] | 9 | 89
CN(C)CC(OC(=O)N1Cc2c(NC(=O)c3ccc(F)cc3)n[nH]c2C1(C)C)c1ccc(F)cc1 (centres unmarked) [Example 39, 2-(dimethylamino)-1-(4-fluorophenyl)ethyl 3-[(4-fluorobenzoyl)amino]-6,6-dimethyl-4,6-dihydropyrrolo[3,4-c]pyrazole-5(1H)-carboxylate] | 15.3 | 47.5
CN(C)C[C@@H](OC(=O)N1Cc2c(NC(=O)[C@H]3CCCO3)n[nH]c2C1(C)C)c1ccccc1 [Example 89, (S)-2-(dimethylamino)-1-phenylethyl 6,6-dimethyl-3-((R)-tetrahydrofuran-2-carboxamido)pyrrolo[3,4-c]pyrazole-5(1H,4H,6H)-carboxylate] | 10 | 156
3-[(2,4-difluorobenzoyl)amino]-N-[(1S)-2-(dimethylamino)-1-phenylethyl]-6,6-dimethyl-4,6-dihydropyrrolo[3,4-c]pyrazole-5(1H)-carbox- amide [Example 49] | 90.8 | 193
CC(=O)Nc1n[nH]c2c1CN(C(=O)O[C@H](CN(C)C)c1ccccc1)C2(C)C [Example 7, (1S)-2-(dimethylamino)-1-phenylethyl 3-(acetylamino)-6,6-dimethyl-4,6-dihydropyrrolo[3,4-c]pyrazole-5(1H)-carboxylate] | 230 | 314
CN(C)C[C@@H](NC(=O)N1Cc2c(NC(=O)c3ccccn3)n[nH]c2C1(C)C)c1ccccc1 [Example 51, N-[(1S)-2-(dimethylamino)-1-phenylethyl]-6,6-dimethyl-3-[(pyridin-2-ylcarbonyl)amino]-4,6-dihydropyrrolo[3,4-c]pyrazole-5(1H)-carboxamide] | 20.3 | 118
CN(C)CC(OC(=O)N1Cc2c(NC(=O)c3ccc(F)cc3)n[nH]c2C1(C)C)c1ccccc1 (centres unmarked) [Example 22] | 14.8 | 17.4
CN(C)C[C@@H](OC(=O)N1Cc2c(NC(=O)[C@@H]3C[C@H]3c3ccccc3)n[nH]c2C1(C)C)c1ccccc1 [Example 20, (1S)-2-(dimethylamino)-1-phenylethyl 6,6-dimethyl-3-({[trans-2-phenylcyclopropyl]carbonyl}amino)-4,6-dihydropyrrolo[3,4-c]pyrazole-5(1H)-carboxylate] | 80.2 | 8.13
